Reference: patent US8802664B2 (Bioproject, priority 2010, dated 2014)
Counter-ions that a name gives are not always drawn.

SMILES	melting point
CN1CCC(OC(c2cccc(C=CCCCO)c2)c2nc3ccccc3[nH]2)CC1 (centres unmarked) (as salt: oxalate) [Example 389, 5-{3-[(1H-benzimidazol-2-yl)(1-methylpiperidin-4-yloxy)methyl]phenyl}pent-4-en-1-ol]	125 °C
CN1CCC(OC(c2cccc(OCCCCCN3CCN(C(=O)OC(C)(C)C)CC3)c2)c2nc3ccccc3[nH]2)CC1 (centres unmarked) (as salt: oxalate) [Example 391, 4-(5-{3-[(1H-benzimidazol-2-yl)(1-methylpiperidin-4-yloxy)methyl]phenoxy}pentyl)piperazine-1-carboxylic acid tert-butyl ester]	101 °C
CN1CCC(OC(c2cccc(OCCCCCN)c2)c2nc3ccccc3[nH]2)CC1 (centres unmarked) (as salt: oxalate) [Example 400, 5-{3-[(1H-benzimidazol-2-yl)(1-methylpiperidin-4-yloxy)methyl]phenoxy}pentylamine]	111 °C
CN1CCC(OC(c2cccc(C#CCCCn3cccn3)c2)c2nc3ccccc3[nH]2)CC1 (centres unmarked) (as salt: oxalate) [Example 410, 2-{(1-methylpiperidin-4-yloxy)[3-(5-pyrazol-1-yl-pent-1-ynyl)phenyl]methyl}-1H-benzimidazole]	115 °C
CN1CCC(OC(c2cccc(OC3CCNCC3)c2)c2nc3ccccc3s2)CC1 (centres unmarked) (as salt: oxalate) [Example 415, 2-{(1-methylpiperidin-4-yloxy)[3-(piperidin-4-yloxy)phenyl]methyl}benzothiazole]	76 °C
CN1CCC(OC(c2cccc(OCCCCCNCCCCN)c2)c2nc3ccccc3[nH]2)CC1 (centres unmarked) (as salt: oxalate) [Example 419, N1-(5-{3-[(1H-benzimidazol-2-yl)(1-methylpiperidin-4-yloxy)methyl]phenoxy}pentyl)butane-1,4-diamine]	162 °C
CN1CCC(NC(c2cccc(C#CCCCCN)c2)c2nc3ccccc3s2)CC1 (centres unmarked) (as salt: oxalate) [Example 420, {[3-(6-aminohex-1-ynyl)phenyl]benzothiazol-2-yl-methyl}(1-methylpiperidin-4-yl)amine]	80 °C
CN1CCC(OC(c2cccc(OCC=CCO)c2)c2nc3ccccc3s2)CC1 (centres unmarked) (as salt: oxalate) [Example 422, 4-{3-[benzothiazol-2-yl(1-methylpiperidin-4-yloxy)methyl]phenoxy}but-2-en-1-ol]	73 °C
CN1CCC(OC(c2nc3ccccc3[nH]2)c2cc(I)ccc2F)CC1 (centres unmarked) (as salt: oxalate) [Example 425, 2-[(2-fluoro-5-iodo-phenyl)(1-methylpiperidin-4-yloxy)methyl]-1H-benzimidazole]	175 °C
CN1CCC(OC(c2cccc(SCCN)c2)c2nc3cc(F)ccc3[nH]2)CC1 (centres unmarked) (as salt: oxalate) [Example 428, 2-{3-[(5-fluoro-1H-benzimidazol-2-yl)(1-methylpiperidin-4-yloxy)methyl]phenylsulfanyl}ethylamine]	85 °C
CN1CCC(OC(c2cccc(OCC=CCN)c2)c2nc3ccccc3s2)CC1 (centres unmarked) (as salt: oxalate) [Example 431, 4-{3-[benzothiazol-2-yl(1-methylpiperidin-4-yloxy)methyl]phenoxy}but-2-enylamine]	117 °C
CN1CCC(OC(c2cccc(C#CCCCN)c2)c2nc3cc(F)ccc3[nH]2)CC1 (centres unmarked) (as salt: oxalate) [Example 438, 5-{3-[(5-fluoro-1H-benzimidazol-2-yl)(1-methylpiperidin-4-yloxy)methyl]phenyl}pent-4-ynylamine]	150 °C
CN1CCC(OC(c2nc3ccccc3[nH]2)c2cc(C#CCCCN)ccc2F)CC1 (centres unmarked) (as salt: oxalate) [Example 442]	139 °C
CN1CCC(OC(c2cccc(Oc3cccnc3)c2)c2nc3ccccc3s2)CC1 (centres unmarked) (as salt: oxalate) [Example 448, 2-{(1-methylpiperidin-4-yloxy)[3-(pyridin-3-yloxy)phenyl]methyl}benzothiazole]	78 °C
CN1CCC(COC(c2cccc(Br)c2)c2nc3cc(F)ccc3[nH]2)C1 (centres unmarked) (as salt: oxalate) [Example 449, 2-[(3-bromophenyl)(1-methylpyrrolidin-3-ylmethoxy)methyl]-5-fluoro-1H-benzimidazole]	70 °C
CN1CCC(COC(c2cccc(C#CCCCN)c2)c2nc3cc(F)ccc3[nH]2)C1 (centres unmarked) (as salt: oxalate) [Example 462]	200 °C
CN1CCC(OC(c2cccc(OC3CC4CNCC4C3)c2)c2nc3ccccc3s2)CC1 (centres unmarked) (as salt: oxalate) [Example 466]	70 °C
CN1CCC(OC(c2cccc(I)c2)c2nc3ccccc3n2C)CC1 (centres unmarked) (as salt: oxalate) [Example 472, 2-[(3-iodophenyl)(1-methylpiperidin-4-yloxy)methyl]-1-methyl-1H-benzimidazole]	76 °C
CN1CCC(OC(c2cccc(OCCCF)c2)c2nc3ccccc3[nH]2)CC1 (centres unmarked) (as salt: oxalate) [Example 475]	106 °C
CN1CCC(OC(c2cccc(OCCF)c2)c2nc3ccccc3[nH]2)CC1 (centres unmarked) (as salt: oxalate) [Example 476]	136 °C
CN1CCC(OC(c2cccc(OC3CCC(N)CC3)c2)c2nc3ccccc3s2)CC1 (centres unmarked) (as salt: oxalate) [Example 477]	95 °C
CN1CCC(OC(c2cccc(C#CCCCCN)c2)c2nc3ccccc3n2C)CC1 (centres unmarked) (as salt: oxalate) [Example 480, 6-{3-[(1-methyl-1H-benzimidazol-2-yl)(1-methylpiperidin-4-yloxy)methyl]phenyl}hex-5-ynylamine]	113 °C

Second part, the molecule after the results:

melting point	SMILES
81 °C	CN1CCC(OC(c2cccc(OC3CNC3)c2)c2nc3ccccc3s2)CC1 (centres unmarked) (as salt: oxalate) [Example 402, 2-[[3-(azetidin-3-yloxy)phenyl](1-methylpiperidin-4-yloxy)methyl]benzothiazole]
117 °C	CN1CCC(OC(c2cccc(N3CC(O)C3)c2)c2nc3ccccc3s2)CC1 (centres unmarked) (as salt: oxalate) [Example 403, 1-{3-[benzothiazol-2-yl(1-methylpiperidin-4-yloxy)methyl]phenyl}azetidin-3-ol]
106 °C	CN1CCC(OC(c2cccc(N3CCC(CO)C3)c2)c2nc3ccccc3s2)CC1 (centres unmarked) (as salt: oxalate) [Example 404, (1-{3-[benzothiazol-2-yl(1-methylpiperidin-4-yloxy)methyl]phenyl}pyrrolidin-3-yl)methanol]
137 °C	CN1CCC(OC(c2cccc(N3CCC(N)CC3)c2)c2nc3ccccc3s2)CC1 (centres unmarked) (as salt: oxalate) [Example 405, 1-{3-[benzothiazol-2-yl(1-methylpiperidin-4-yloxy)methyl]phenyl}piperidin-4-ylamine]
103 °C	CN1CCC(OC(c2cccc(N3CCC(O)C3)c2)c2nc3ccccc3s2)CC1 (centres unmarked) (as salt: oxalate) [Example 406, 1-{3-[benzothiazol-2-yl(1-methylpiperidin-4-yloxy)methyl]phenyl}pyrrolidin-3-ol]
106 °C	CN1CCC(OC(c2cccc(N3CCC(O)C3)c2)c2nc3ccccc3s2)CC1 (centres unmarked) (as salt: oxalate) [Example 407, 1-{3-[benzothiazol-2-yl(1-methylpiperidin-4-yloxy)methyl]phenyl}pyrrolidin-3-ol]
111 °C	CC(=O)NC1CCN(c2cccc(C(OC3CCN(C)CC3)c3nc4ccccc4s3)c2)C1 (centres unmarked) (as salt: oxalate) [Example 408, N-(1-{3-[benzothiazol-2-yl(1-methylpiperidin-4-yloxy)methyl]phenyl}pyrrolidin-3-yl)acetamide]
110 °C	CN1CCC(OC(c2cccc(N3CCC(O)CC3)c2)c2nc3ccccc3s2)CC1 (centres unmarked) (as salt: oxalate) [Example 411, 1-{3-[benzothiazol-2-yl(1-methylpiperidin-4-yloxy)methyl]phenyl}piperidin-4-ol]
74 °C	CC(=O)OC1CCN(c2cccc(C(OC3CCN(C)CC3)c3nc4ccccc4s3)c2)CC1 (centres unmarked) (as salt: oxalate) [Example 413, acetic acid 1-{3-[benzothiazol-2-yl(1-methylpiperidin-4-yloxy)methyl]phenyl}piperidin-4-yl ester]
145 °C	CN1CCC(OC(c2cccc(N3CCC(N)C3)c2)c2nc3ccccc3s2)CC1 (centres unmarked) (as salt: oxalate) [Example 423, 1-{3-[benzothiazol-2-yl(1-methylpiperidin-4-yloxy)methyl]phenyl}pyrrolidin-3-ylamine]
137 °C	CN1CCC(OC(c2cccc(N3CCC(N)C3)c2)c2nc3ccccc3s2)CC1 (centres unmarked) (as salt: oxalate) [Example 429, 1-{3-[benzothiazol-2-yl(1-methylpiperidin-4-yloxy)methyl]phenyl}pyrrolidin-3-ylamine]
70 °C	CN1CCC(OC(c2cccc(N3CCC(F)C3)c2)c2nc3ccccc3s2)CC1 (centres unmarked) (as salt: oxalate) [Example 430, 2-[[3-(3-fluoropyrrolidin-1-yl)phenyl](1-methylpiperidin-4-yloxy)methyl]benzothiazole]
105 °C	CN1CCC(OC(c2cccc(N3CCC(=O)C3)c2)c2nc3ccccc3s2)CC1 (centres unmarked) (as salt: oxalate) [Example 443, 1-{3-[benzothiazol-2-yl(1-methylpiperidin-4-yloxy)methyl]phenyl}pyrrolidin-3-one]
91 °C	CN1CCC(OC(c2cccc(OC3CCC(N)C3)c2)c2nc3ccccc3s2)CC1 (centres unmarked) (as salt: oxalate) [Example 453]
103 °C	CN1CCC(OC(c2cccc(N3CCC(F)C3)c2)c2nc3ccccc3s2)CC1 (centres unmarked) (as salt: oxalate) [Example 454]
126 °C	CN1CCC(OC(c2cccc(N3CC4CC(N)CC4C3)c2)c2nc3ccccc3s2)CC1 (centres unmarked) (as salt: oxalate) [Example 471]
145 °C	CN1CCC(OC(c2cccc(N3CCCC3CN)c2)c2nc3ccccc3s2)CC1 (centres unmarked) (as salt: oxalate) [Example 482]
115 °C	CNC1CCN(c2cccc(C(OC3CCN(C)CC3)c3nc4ccccc4s3)c2)C1 (centres unmarked) (as salt: oxalate) [Example 483]
106 °C	CN1CCC(OC(c2cccc(N3CCC(N(C)C)C3)c2)c2nc3ccccc3s2)CC1 (centres unmarked) (as salt: oxalate) [Example 484]
